In PubChem BioAssay (NCI) one finds TGI and GI50 data, which are given here for 21 molecules.

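Five concentrations, 48 hours, 96-well plates. GI50: concentration for 50% inhibition of growth. Definition used: TGI = concentration required for complete inhibition of growth.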 Where only a bound is given, the exact number is not on record here.

One assay relates to A498 renal. The assay can be described thus: NCI anticancer screen, dose series, 48 h.
As for `Cc1ccc(N=Cc2ccc3c(c2)OCO3)cc1C`, the TGI was > 100 µM.
On to `COC(C(=O)[O][Ge]([CH3])([CH3])[CH3])c1ccccc1` (stereo unspecified), for which the GI50 is > 100 µM and the TGI is > 100 µM.
`O=C1/C(=C\c2c[nH]c3ccccc23)c2ccccc2N1c1c(Cl)cccc1Cl`: the GI50 is 3.09 µM and the TGI was 4.86 µM.
The corresponding values for `OC(c1cc(-c2ccccc2)nc2ccc(Cl)cc12)C1CCCCN1` (stereo unspecified) are 6.22 µM and 20.3 µM.
As for `CCN(CC)c1ccc(C(=O)c2ccccc2C(=O)O)c(O)c1`, the TGI was > 100 µM.
Same read-out and setting: as for `COc1ccc(OC)c(NC(=O)C2=C(C)NC(C)=C(C(=O)Nc3cc(OC)ccc3OC)C2c2ccccc2)c1`, the figure is > 100 µM; as for `CC(CCC(=O)O)[C@H]1CCC2[C@@H]3CC[C@@H]4CC(O)CC[C@]4(C)C3CC[C@@]21C` (stereo partly specified), > 100 µM; as for `Nc1ccn(CCNCCn2cnc3nc(N)[nH]c(=O)c32)c(=O)n1`, > 100 µM.

In the next assay the test system is MOLT-4 leukemia. The assay can be described thus: NCI anticancer screen, dose series, 48 h.
For `CCCC(C)c1cc(Cc2cc(Cl)cc(Cl)c2O)c(O)c(Cc2cc(Cl)cc(Cl)c2O)c1` (stereo unspecified), the GI50 is 1.53 µM and the TGI turned out to be 4.83 µM.
For the molecule `C/C(=N\NS(=O)(=O)c1ccccc1)c1ccc(Cl)c(Cl)c1`, the TGI was > 100 µM.
On to `COc1ccc(/C=C2\CCCC3=C2N=C2SC(C)=NN2C3c2ccc(OC)c(OC)c2)cc1OC` (stereo unspecified), for which the GI50 is 13.8 µM and the TGI was > 100 µM.
Regarding `COc1ccc(-c2nn3c(-c4cc(F)c(Cl)cc4Cl)nnc3s2)cc1`, the GI50 was 26.5 µM and the TGI turned out to be 80.7 µM.
Take `CCCNC1=C(C(=O)OCC)C(=O)CO1`: the TGI is > 100 µM.
Turning to `O=C(NCCO)Nc1ccc(-c2nc(N3CCOCC3)c3cccn3n2)cc1`, the GI50 was 0.217 µM and the TGI was > 49.2 µM.
Regarding `Cc1ccc(-c2cn3ccnc3c(-c3ccc(Cl)cc3)n2)cc1`, the GI50 was 0.0815 µM and the TGI is > 100 µM.
For the molecule `CC1(C)C(=NNC(=O)C[N+](C)(C)C)C(C)(C)C1=NNC(=O)C[N+](C)(C)C`, the TGI was > 100 µM.
As to `COc1ccc2sc3c(NCCCN(C)C)nc4ccccc4c3c(=O)c2c1`, the GI50 is 1.71 µM and the TGI was 3.56 µM.
With `NC1C[C@H](n2cc(/C=C/Br)c(=O)[nH]c2=O)C[C@@H]1CO` (stereo partly specified), the TGI is > 100 µM.
The same measure, in the same setting: for `O=c1/c(=C/c2ccccc2F)sc2nc3ccccc3n12` the value was > 100 µM.
On the same count and under the same terms, for `CC1=C(C)C(=O)c2c(cc3ccccn23)C1=O` the value was > 100 µM; for `Cc1ccc(N=Cc2ccc3c(c2)OCO3)cc1C`, > 100 µM.
Take `COC(C(=O)[O][Ge]([CH3])([CH3])[CH3])c1ccccc1` (stereo unspecified): the GI50 is > 100 µM and the TGI was > 100 µM.
In the case of `O=C1/C(=C\c2c[nH]c3ccccc23)c2ccccc2N1c1c(Cl)cccc1Cl`, the GI50 was 1.5 µM and the TGI stood at 5.13 µM.
Take `OC(c1cc(-c2ccccc2)nc2ccc(Cl)cc12)C1CCCCN1` (stereo unspecified): the GI50 is 2.51 µM and the TGI stood at 6.2 µM.
As for `CCN(CC)c1ccc(C(=O)c2ccccc2C(=O)O)c(O)c1`, the TGI was > 100 µM.
Same read-out and setting: for `COc1ccc(OC)c(NC(=O)C2=C(C)NC(C)=C(C(=O)Nc3cc(OC)ccc3OC)C2c2ccccc2)c1` the value was > 100 µM.
For the molecule `CC(CCC(=O)O)[C@H]1CCC2[C@@H]3CC[C@@H]4CC(O)CC[C@]4(C)C3CC[C@@]21C` (stereo partly specified), the GI50 is 22 µM and the TGI came out at 79 µM.

A further assay relates to RXF 393 renal. As to the kind of experiment: NCI anticancer screen, dose series, 48 h.
With `CCCC(C)c1cc(Cc2cc(Cl)cc(Cl)c2O)c(O)c(Cc2cc(Cl)cc(Cl)c2O)c1` (stereo unspecified), the GI50 was 1.34 µM and the TGI turned out to be 8.27 µM.
For `C/C(=N\NS(=O)(=O)c1ccccc1)c1ccc(Cl)c(Cl)c1`, the TGI was > 100 µM.
As for `COc1ccc(/C=C2\CCCC3=C2N=C2SC(C)=NN2C3c2ccc(OC)c(OC)c2)cc1OC` (stereo unspecified), the GI50 is 3.88 µM and the TGI is 18.2 µM.
Consider `COc1ccc(-c2nn3c(-c4cc(F)c(Cl)cc4Cl)nnc3s2)cc1`, for which the GI50 was 28.7 µM and the TGI came to 97.2 µM.
In the case of `CCCNC1=C(C(=O)OCC)C(=O)CO1`, the TGI is > 100 µM.
On to `O=C(NCCO)Nc1ccc(-c2nc(N3CCOCC3)c3cccn3n2)cc1`, for which the GI50 is 0.0686 µM and the TGI was determined as 1.39 µM.
The corresponding values for `Cc1ccc(-c2cn3ccnc3c(-c3ccc(Cl)cc3)n2)cc1` are 2.16 µM and > 100 µM.
In the case of `CC1(C)C(=NNC(=O)C[N+](C)(C)C)C(C)(C)C1=NNC(=O)C[N+](C)(C)C`, the TGI was > 100 µM.
For the molecule `Nn1c(NNC(=O)C(=O)Nc2cc(Cl)c(Cl)cc2Cl)n[nH]c1=S`, the TGI is > 100 µM.
Turning to `COc1ccc2sc3c(NCCCN(C)C)nc4ccccc4c3c(=O)c2c1`, the GI50 is 1.22 µM and the TGI turned out to be 2.53 µM.
For `NC1C[C@H](n2cc(/C=C/Br)c(=O)[nH]c2=O)C[C@@H]1CO` (stereo partly specified), the TGI is > 100 µM.
As to `O=c1/c(=C/c2ccccc2F)sc2nc3ccccc3n12`, the TGI was > 100 µM.
In the case of `CC1=C(C)C(=O)c2c(cc3ccccn23)C1=O`, the TGI was found to be 27.9 µM.
Same read-out and setting: for `Cc1ccc(N=Cc2ccc3c(c2)OCO3)cc1C` the value was > 100 µM.
Regarding `COC(C(=O)[O][Ge]([CH3])([CH3])[CH3])c1ccccc1` (stereo unspecified), the GI50 is > 100 µM and the TGI was > 100 µM.
Consider `O=C1/C(=C\c2c[nH]c3ccccc23)c2ccccc2N1c1c(Cl)cccc1Cl`, for which the GI50 is 2.02 µM and the TGI stood at 3.92 µM.
For `OC(c1cc(-c2ccccc2)nc2ccc(Cl)cc12)C1CCCCN1` (stereo unspecified) the same measures were 2.01 µM and 3.84 µM.
For the molecule `CCN(CC)c1ccc(C(=O)c2ccccc2C(=O)O)c(O)c1`, the TGI is > 100 µM.
On to `COc1ccc(OC)c(NC(=O)C2=C(C)NC(C)=C(C(=O)Nc3cc(OC)ccc3OC)C2c2ccccc2)c1`, for which the TGI was > 100 µM.
For `CC(CCC(=O)O)[C@H]1CCC2[C@@H]3CC[C@@H]4CC(O)CC[C@]4(C)C3CC[C@@]21C` (stereo partly specified), the GI50 is 46.9 µM and the TGI was > 100 µM.
As for `Nc1ccn(CCNCCn2cnc3nc(N)[nH]c(=O)c32)c(=O)n1`, the TGI is > 100 µM.
